Read-outs that look alike come from different tables or passages of the source.
Experiments:
PDGFRB = molecular target: T1, PDGFRB (Homo sapiens, UniProt P09619); assay: KINOMEscan ScanTK; type: binding
T1 construct: purchased Eurofins DiscoverX KINOMEscan (scanTK)

BLK = molecular target: T2, BLK (Homo sapiens, UniProt P51451); assay: KINOMEscan ScanTK; type: binding
T2 construct: purchased Eurofins DiscoverX KINOMEscan (scanTK)

DDR1 = molecular target: T3, DDR1 (Homo sapiens, UniProt Q08345); assay: KINOMEscan ScanTK; type: binding
T3 construct: purchased Eurofins DiscoverX KINOMEscan (scanTK)

[1] = molecular target: T4, TYK2(JH2domain-pseudokinase) (Homo sapiens, UniProt P29597); assay: KINOMEscan ScanTK; type: binding
T4 construct: TYK2(JH2domain-pseudokinase); purchased Eurofins DiscoverX KINOMEscan (scanTK)

EPHB1 = molecular target: T5, EPHB1 (Homo sapiens, UniProt P54762); assay: KINOMEscan ScanTK; type: binding
T5 construct: purchased Eurofins DiscoverX KINOMEscan (scanTK)
T5 sequence (P54762 18-984): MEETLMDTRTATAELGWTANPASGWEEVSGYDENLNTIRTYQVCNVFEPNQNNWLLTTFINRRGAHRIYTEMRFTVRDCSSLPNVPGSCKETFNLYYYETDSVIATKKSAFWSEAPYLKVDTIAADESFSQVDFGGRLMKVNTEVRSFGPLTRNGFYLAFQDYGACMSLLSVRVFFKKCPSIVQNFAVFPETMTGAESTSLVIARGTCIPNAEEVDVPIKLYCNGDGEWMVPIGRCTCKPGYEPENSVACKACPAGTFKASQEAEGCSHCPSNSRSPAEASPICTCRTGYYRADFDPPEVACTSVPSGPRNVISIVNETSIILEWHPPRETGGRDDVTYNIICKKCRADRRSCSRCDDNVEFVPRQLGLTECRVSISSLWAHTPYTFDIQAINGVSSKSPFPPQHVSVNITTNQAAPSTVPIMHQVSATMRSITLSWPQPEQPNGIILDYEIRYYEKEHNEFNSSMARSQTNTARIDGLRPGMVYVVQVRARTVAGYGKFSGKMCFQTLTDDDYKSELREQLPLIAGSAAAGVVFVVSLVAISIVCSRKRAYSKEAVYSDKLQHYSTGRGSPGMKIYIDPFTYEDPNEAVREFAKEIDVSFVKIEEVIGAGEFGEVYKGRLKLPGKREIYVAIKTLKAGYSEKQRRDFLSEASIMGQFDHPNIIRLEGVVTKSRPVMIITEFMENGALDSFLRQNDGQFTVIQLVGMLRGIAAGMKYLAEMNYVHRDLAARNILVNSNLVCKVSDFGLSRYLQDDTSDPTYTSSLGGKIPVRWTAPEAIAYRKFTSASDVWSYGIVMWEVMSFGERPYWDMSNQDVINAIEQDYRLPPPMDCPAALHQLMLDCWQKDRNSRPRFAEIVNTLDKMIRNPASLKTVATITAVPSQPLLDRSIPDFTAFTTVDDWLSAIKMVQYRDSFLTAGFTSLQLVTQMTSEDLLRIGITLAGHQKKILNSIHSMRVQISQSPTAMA

KIT(D816H) = molecular target: T6, KIT(D816H) (Homo sapiens, UniProt P10721, D816H); assay: KINOMEscan ScanTK; type: binding
T6 construct: purchased Eurofins DiscoverX KINOMEscan (scanTK)

[2] = molecular target: T7, EGFR(L747-E749del, A750P) (Homo sapiens, UniProt P00533, A750P/DEL747-749); assay: KINOMEscan ScanTK; type: binding
T7 construct: purchased Eurofins DiscoverX KINOMEscan (scanTK)

ABL2 = molecular target: T8, ABL2 (Homo sapiens, UniProt P42684); assay: KINOMEscan ScanTK; type: binding
T8 construct: purchased Eurofins DiscoverX KINOMEscan (scanTK)

TEC = molecular target: T9, TEC (Homo sapiens, UniProt P42680); assay: KINOMEscan ScanTK; type: binding
T9 construct: purchased Eurofins DiscoverX KINOMEscan (scanTK)
T9 sequence (P42680 1-631): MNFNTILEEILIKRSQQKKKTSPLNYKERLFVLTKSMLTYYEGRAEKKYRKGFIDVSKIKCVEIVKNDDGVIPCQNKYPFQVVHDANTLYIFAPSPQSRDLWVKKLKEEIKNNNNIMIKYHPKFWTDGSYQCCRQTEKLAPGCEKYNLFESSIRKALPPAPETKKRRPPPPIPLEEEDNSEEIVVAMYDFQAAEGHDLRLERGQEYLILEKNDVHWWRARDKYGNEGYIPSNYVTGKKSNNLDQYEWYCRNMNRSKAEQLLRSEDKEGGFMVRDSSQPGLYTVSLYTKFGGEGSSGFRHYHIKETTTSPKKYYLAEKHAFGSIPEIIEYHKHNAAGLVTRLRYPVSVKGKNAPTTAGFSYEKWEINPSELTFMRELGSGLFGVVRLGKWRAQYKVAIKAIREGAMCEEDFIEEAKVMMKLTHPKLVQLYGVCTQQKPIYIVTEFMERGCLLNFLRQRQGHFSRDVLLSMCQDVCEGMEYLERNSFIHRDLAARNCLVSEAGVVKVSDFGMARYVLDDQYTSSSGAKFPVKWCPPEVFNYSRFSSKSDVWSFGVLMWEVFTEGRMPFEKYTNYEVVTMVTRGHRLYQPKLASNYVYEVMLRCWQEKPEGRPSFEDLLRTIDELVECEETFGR

RET = molecular target: T10, RET (Homo sapiens, UniProt P07949); assay: KINOMEscan ScanTK; type: binding
T10 construct: purchased Eurofins DiscoverX KINOMEscan (scanTK)

BTK, full length (2–659) = BTK, full length (2–659) (Homo sapiens, UniProt Q06187); assay: Kinact/Ki determination, PhosphoSens progress curve analysis; type: biochemical; details: BTK
Description: Nonlinear regression was performed using the Solver algorithm in Excel. […] Two-step Kinact/Ki fits were extracted from the progress curve analysis of all compounds against BTK, enabling independent Kinact and Ki determinations.

MET = molecular target: T11, MET (Homo sapiens, UniProt P08581); assay: KINOMEscan ScanTK; type: binding
T11 construct: purchased Eurofins DiscoverX KINOMEscan (scanTK)

[3] = molecular target: T12, ABL1(Q252H)-phosphorylated (Homo sapiens, UniProt P00519, Q252H); assay: KINOMEscan ScanTK; type: binding
T12 construct: purchased Eurofins DiscoverX KINOMEscan (scanTK)

[4] = @1000nM, BLK, read-out: %Control
[5] = BLK, read-out: %Control @1000nM
[6] = @1000nM, read-out: % difference (compound - Ib %Control)

T11 sequence (P08581 25-1390): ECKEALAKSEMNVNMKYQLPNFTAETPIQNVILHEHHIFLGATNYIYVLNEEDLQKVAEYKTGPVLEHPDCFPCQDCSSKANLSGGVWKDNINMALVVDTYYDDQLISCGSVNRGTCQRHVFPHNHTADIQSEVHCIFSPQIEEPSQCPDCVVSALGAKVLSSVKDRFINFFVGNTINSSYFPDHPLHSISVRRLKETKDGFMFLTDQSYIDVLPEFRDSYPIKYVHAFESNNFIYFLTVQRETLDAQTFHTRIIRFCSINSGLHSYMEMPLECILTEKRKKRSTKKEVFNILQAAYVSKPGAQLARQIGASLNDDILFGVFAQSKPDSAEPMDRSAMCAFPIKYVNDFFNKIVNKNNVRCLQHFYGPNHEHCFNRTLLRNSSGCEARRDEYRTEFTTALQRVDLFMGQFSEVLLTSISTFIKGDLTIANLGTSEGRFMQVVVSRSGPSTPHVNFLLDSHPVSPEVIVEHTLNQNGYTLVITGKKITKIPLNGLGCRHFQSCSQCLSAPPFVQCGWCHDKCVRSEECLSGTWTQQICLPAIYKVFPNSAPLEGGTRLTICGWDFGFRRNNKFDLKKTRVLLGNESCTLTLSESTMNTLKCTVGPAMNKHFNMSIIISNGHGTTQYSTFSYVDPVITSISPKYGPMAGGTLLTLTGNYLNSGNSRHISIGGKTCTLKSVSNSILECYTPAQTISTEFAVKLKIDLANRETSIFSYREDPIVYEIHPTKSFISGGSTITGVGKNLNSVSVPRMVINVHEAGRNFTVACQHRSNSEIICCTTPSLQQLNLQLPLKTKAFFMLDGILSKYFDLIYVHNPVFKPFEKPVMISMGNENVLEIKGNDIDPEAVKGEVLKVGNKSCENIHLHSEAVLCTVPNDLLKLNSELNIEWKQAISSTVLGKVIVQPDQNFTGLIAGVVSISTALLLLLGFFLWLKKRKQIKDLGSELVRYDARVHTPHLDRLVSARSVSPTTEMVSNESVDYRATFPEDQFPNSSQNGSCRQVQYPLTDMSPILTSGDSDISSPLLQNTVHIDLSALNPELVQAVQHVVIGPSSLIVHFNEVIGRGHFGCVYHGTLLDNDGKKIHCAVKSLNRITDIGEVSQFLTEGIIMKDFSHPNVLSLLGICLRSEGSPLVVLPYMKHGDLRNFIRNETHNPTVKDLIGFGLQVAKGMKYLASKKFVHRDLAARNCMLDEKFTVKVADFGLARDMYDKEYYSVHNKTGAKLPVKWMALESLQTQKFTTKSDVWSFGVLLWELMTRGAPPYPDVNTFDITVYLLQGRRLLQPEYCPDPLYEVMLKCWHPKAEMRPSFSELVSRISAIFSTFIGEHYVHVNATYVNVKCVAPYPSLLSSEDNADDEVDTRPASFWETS
T4 sequence (P29597 575-869 limits assumed): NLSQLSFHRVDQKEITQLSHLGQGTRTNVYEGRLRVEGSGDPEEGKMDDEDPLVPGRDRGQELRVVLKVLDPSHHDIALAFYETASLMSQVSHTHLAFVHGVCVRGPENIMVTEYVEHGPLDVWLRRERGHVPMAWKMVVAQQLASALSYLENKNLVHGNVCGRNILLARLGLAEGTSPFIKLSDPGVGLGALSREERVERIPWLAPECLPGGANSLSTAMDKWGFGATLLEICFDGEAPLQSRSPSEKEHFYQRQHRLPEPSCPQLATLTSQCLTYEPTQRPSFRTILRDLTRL
Chain of BTK, full length (2–659) (Q06187 2-659): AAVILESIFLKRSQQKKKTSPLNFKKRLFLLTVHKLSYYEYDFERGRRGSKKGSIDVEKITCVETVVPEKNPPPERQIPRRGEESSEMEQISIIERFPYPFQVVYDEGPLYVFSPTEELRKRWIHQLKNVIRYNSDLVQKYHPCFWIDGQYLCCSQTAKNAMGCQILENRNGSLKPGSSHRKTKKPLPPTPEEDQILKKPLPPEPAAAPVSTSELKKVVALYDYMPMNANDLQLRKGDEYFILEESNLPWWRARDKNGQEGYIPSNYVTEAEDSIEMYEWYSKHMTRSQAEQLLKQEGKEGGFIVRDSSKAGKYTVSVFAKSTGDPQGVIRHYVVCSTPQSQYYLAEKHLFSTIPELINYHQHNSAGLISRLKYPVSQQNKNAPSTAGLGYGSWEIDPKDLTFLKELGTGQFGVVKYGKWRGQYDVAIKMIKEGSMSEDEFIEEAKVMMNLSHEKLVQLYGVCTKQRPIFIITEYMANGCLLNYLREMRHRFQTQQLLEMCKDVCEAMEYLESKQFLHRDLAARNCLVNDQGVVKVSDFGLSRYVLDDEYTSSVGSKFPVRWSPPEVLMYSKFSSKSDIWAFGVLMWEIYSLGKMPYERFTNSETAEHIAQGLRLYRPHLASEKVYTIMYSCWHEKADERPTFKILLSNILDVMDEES
T6 sequence (P10721 26-976 D816H): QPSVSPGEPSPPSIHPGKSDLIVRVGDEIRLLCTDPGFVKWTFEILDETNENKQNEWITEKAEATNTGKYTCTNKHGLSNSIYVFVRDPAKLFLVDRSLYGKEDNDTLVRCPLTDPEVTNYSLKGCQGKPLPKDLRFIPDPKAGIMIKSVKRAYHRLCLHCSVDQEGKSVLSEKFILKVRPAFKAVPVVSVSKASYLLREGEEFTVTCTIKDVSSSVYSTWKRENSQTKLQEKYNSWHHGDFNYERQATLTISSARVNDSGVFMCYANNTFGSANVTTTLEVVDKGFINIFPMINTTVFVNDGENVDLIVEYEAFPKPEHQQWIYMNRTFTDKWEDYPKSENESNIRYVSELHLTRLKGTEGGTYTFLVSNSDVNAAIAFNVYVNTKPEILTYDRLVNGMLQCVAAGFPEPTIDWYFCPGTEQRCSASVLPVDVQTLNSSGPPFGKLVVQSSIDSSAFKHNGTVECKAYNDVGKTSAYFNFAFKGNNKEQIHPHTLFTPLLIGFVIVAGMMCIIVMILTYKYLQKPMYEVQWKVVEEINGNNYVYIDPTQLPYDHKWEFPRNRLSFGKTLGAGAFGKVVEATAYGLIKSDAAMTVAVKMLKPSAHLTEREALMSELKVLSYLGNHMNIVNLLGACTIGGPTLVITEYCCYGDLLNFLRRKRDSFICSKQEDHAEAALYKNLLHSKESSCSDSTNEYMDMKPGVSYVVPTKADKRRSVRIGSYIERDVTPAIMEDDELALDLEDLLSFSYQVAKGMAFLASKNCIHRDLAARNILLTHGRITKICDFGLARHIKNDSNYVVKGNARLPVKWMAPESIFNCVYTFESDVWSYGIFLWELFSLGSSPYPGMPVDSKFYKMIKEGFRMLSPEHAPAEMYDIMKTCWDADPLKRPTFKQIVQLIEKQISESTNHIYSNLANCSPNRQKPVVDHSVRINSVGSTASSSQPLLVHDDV
T8 sequence (P42684 whole entry): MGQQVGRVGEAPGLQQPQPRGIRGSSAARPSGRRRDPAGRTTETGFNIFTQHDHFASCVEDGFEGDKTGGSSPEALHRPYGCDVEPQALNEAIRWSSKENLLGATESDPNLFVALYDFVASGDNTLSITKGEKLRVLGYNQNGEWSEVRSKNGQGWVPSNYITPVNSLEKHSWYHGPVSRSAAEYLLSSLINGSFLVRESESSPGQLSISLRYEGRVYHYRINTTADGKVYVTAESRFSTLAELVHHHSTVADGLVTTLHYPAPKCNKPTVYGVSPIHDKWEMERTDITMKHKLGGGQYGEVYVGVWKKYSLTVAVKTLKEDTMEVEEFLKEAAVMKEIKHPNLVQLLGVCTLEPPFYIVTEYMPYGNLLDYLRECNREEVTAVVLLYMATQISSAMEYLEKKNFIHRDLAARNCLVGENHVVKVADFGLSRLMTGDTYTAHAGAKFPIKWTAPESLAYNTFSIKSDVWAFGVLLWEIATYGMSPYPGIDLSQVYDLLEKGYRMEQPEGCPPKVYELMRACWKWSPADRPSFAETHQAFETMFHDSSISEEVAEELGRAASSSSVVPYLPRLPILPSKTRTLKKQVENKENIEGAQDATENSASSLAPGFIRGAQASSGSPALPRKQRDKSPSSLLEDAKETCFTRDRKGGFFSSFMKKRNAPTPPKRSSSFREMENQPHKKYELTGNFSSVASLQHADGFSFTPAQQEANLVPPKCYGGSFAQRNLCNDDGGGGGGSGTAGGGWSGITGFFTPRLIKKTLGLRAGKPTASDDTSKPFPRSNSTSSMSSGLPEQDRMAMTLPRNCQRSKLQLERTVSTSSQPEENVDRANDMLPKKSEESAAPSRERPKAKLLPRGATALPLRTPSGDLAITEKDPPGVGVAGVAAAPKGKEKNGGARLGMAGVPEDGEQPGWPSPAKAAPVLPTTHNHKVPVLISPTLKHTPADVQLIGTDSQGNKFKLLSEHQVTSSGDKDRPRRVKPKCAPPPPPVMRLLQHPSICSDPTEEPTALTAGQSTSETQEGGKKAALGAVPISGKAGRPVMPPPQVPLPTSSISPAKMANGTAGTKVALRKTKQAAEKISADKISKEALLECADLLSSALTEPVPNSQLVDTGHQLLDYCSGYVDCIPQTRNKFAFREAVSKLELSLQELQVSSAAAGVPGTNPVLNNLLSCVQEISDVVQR
T2 sequence (P51451 whole entry): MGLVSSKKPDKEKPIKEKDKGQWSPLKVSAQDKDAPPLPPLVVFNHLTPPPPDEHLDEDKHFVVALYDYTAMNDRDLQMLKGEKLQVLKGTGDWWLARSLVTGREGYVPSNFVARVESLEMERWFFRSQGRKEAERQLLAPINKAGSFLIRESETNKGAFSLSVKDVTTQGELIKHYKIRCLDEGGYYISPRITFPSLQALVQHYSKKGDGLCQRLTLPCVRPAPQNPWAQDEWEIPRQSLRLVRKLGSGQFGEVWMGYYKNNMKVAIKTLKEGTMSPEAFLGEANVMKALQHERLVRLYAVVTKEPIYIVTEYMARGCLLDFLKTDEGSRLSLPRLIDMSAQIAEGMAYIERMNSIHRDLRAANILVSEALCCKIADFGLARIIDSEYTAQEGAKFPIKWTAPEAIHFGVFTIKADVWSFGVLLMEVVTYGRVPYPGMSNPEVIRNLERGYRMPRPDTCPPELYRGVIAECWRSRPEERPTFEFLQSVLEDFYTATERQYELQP

| SMILES | remaining binding at 1 µM (PDGFRB; @1000nM, read-out: %Control) [%] | remaining binding at 1 µM (PDGFRB; read-out: %Control @1000nM) [%] | remaining binding at 1 µM (BLK; [4]) [%] | remaining binding at 1 µM (BLK; [5]) [%] | remaining binding at 1 µM (DDR1; @1000nM, read-out: %Control) [%] | remaining binding at 1 µM (DDR1; read-out: %Control @1000nM) [%] | remaining binding at 1 µM ([1]; @1000nM, read-out: %Control) [%] | remaining binding at 1 µM ([1]; read-out: %Control @1000nM) [%] | remaining binding at 1 µM (KIT(D816H); @1000nM, read-out: %Control) [%] | remaining binding at 1 µM (KIT(D816H); read-out: %Control @1000nM) [%] | remaining binding at 1 µM (ABL2; @1000nM, read-out: %Control) [%] | remaining binding at 1 µM (ABL2; read-out: %Control @1000nM) [%] | remaining binding at 1 µM (TEC; @1000nM, read-out: %Control) [%] | remaining binding at 1 µM (TEC; read-out: %Control @1000nM) [%] | remaining binding at 1 µM (RET; @1000nM, read-out: %Control) [%] | remaining binding at 1 µM (RET; read-out: %Control @1000nM) [%] | remaining binding at 1 µM (MET; @1000nM, read-out: %Control) [%] | remaining binding at 1 µM (MET; read-out: %Control @1000nM) [%] | further results |
| --- | --- | --- | --- | --- | --- | --- | --- | --- | --- | --- | --- | --- | --- | --- | --- | --- | --- | --- | --- |
| Cc1cnc(S(C)(=O)=O)nc1N1CCCC(n2nc(-c3ccc(Oc4ccccc4)cc3)c3c(N)ncnc32)C1 (stereo not shown) [Compound 8a, 1-(1-(5-Methyl-2-(methylsulfonyl)pyrimidin-4-yl)piperidin-3-yl)-3-(4-phenoxyphenyl)-1H-pyrazolo[3,4-d]pyrimidin-4-amine] | 27 | 27 | 0.1 | 0.1 | 83 | 83 | 92 | 92 | 87 | 87 | 70 | 70 | 27 | 27 | 56 | 56 | 100 | 100 | difference in %Control vs reference Ib at 1 µM (BLK; @1000nM, BLK, read-out: % difference (compound - Ib %Control)): 0.05%; difference in %Control from compound Ib at 1 µM (DDR1; @1000nM): 5%; difference in %Control versus Ib at 1 µM [1, 6]: 4%; difference in % of control versus compound Ib at 1 µM (EPHB1; @1000nM, EPHB1): 3%; remaining binding at 1 µM (EPHB1; @1000nM, EPHB1, read-out: %Control): 93%; remaining binding at 1 µM (EPHB1; EPHB1, read-out: %Control @1000nM): 93%; difference in %Control versus compound Ib at 1 µM ([2]; @1000nM): 79.9%; remaining binding at 1 µM ([2]; @1000nM, read-out: %Control): 83%; remaining binding at 1 µM ([2]; read-out: %Control @1000nM): 83%; difference in %Control from reference compound Ib at 1 µM (ABL2; @1000nM): 29%; Ki (BTK, full length (2–659)): 9.08 ± 0.41 nM; kinact (BTK, full length (2–659)): 0.00659 ± 0.00019 s⁻¹; kinact/KI (BTK, full length (2–659); read-out: Kinact/Ki): 726000 M⁻¹ s⁻¹; difference in %Control versus reference Ib at 1 µM [3, 6]: 4%; remaining binding at 1 µM ([3]; @1000nM, read-out: %Control): 98%; remaining binding at 1 µM ([3]; read-out: %Control @1000nM): 98% |
| C=CC(=O)N1CCC[C@@H](n2nc(-c3ccc(Oc4ccccc4)cc3)c3c(N)ncnc32)C1 [Compound 1g, Ibrutinib, reference compound] | 25 | 25 | 0.05 | 0.05 | 78 | 78 | 88 | 88 | 100 | 100 | 41 | 41 | 20 | 20 | 12 | 12 | 100 | 100 | inhibition at 1 µM (BLK; ScanTK, 1 μM): > 99%; remaining binding at 1 µM (EPHB1; read-out: %Control): 90%; remaining binding at 1 µM (EPHB1; read-out: %Control @1000nM): 90% |

From publication PMC11345841, “Exploring 2-Sulfonylpyrimidine Warheads as Acrylamide Surrogates for Targeted Covalent Inhibition: A BTK Story” (Journal of Medicinal Chemistry, 2024)
